Measured values published in patent US9532990B2 (Zhejiang DTRM Biopharma Co. Ltd., priority 2014, dated 2017).

What was measured:
TMD-8 cells = assay: Inhibition assay of tumor cell activity (cell viability); format: cell-based, human; conditions: single agent, 48 hours, AVG
Description: Inhibition Assay of Tumor Cell Activity:
Tumor cells (TMD-8, DoHH2 and WSU-DLCL2) were transferred and attached to 96-well plates. After one night, blank buffer and selected concentrations (0.01 nM-100 μM) of the test compound solution were added. After 48 hours incubation, CellTiter-Go was added to lyse the cells. Recording luminescent signal and calculate the percent inhibition of cell viability.
TMD-8 is a sensitive human diffuse large B-cell lymphoma cell line, and DoHH2 is a more difficult to treat human follicular lymphoma cell line, while WSU-DLCL2 is a multi-drug resistant (MDR) human non-Hodgkin's lymphoma cell line. Drug combination therapies provided better efficacies in all three tumor models than single targeted agent alone.

[1] = Pharmacokinetic study in male SD rats; format: in vivo; conditions: rat, plasma
Description: A pharmacokinetic study in male SD rats: Male SD rats for pharmacokinetic study within 24 hours were divided into two groups: intravenous administration and oral administration. Each group has three animals. For group of intravenous administration, blood samples were collected at pre-dose, 0.0833, 0.167, 0.5, 1, 2, 4, 8, 24 h post-dose; for group of oral administration, blood samples were collected at pre-dose, 0.167, 0.5, 1, 2, 4, 8, 24 h post-dose. After blood collection, HPLC-MS/MS was applied to determine plasma concentrations of the compound.

[2] = Pharmacokinetic study in Beagle dogs; format: in vivo; conditions: dog, plasma
Description: […] Each group has three animals. For group of intravenous administration, blood samples were collected at pre-dose, 0.033, 0.083, 0.25, 0.5, 1, 3, 6, 9, 24 h post-dose; for group of oral administration, blood samples were collected at pre-dose, 0.083, 0.25, 0.5, 1, 3, 6, 9, 24 h post-dose. After blood collection, HPLC-MS/MS was applied to determine plasma concentrations of the compound.

[3] = Toxicokinetic (TK) study in dogs, 28-day; format: in vivo, dog; conditions: for Cmax / Tmax / AUC(0-t): dog, in vivo; for AUC(0-t): read-out: AUC0-24 h
TMD-8 lymphoma xenograft = TMD-8 lymphoma xenograft SCID mouse model; format: in vivo; conditions: BID; for Antitumor effect: Oral
Description: Compounds (Compounds 45 and others) alone and its combinations were evaluated against tumor growth in xenograft models in female CB-17 SCID mice. The TMD-8, DoHH2, WSU-DLCL2 tumor cells were maintained in vitro as a suspension culture in RPMI-1640 medium supplemented with 10% heat inactivated fetal calf serum at 37° C. in an atmosphere of 5% CO2 in air. The tumor cells were routinely subcultured twice weekly. The cells growing in an exponential growth phase were harvested and counted for tumor inoculation. Each mouse was inoculated subcutaneously at the right flank with the tumor cells (10×10^6) in 0.2 ml of PBS with Matrigel (1:1) for tumor development. The treatments were started after the average tumor size reached approximately 100-200 mm^3. Each group consisted of 6-10 tumor-bearing mice. The testing article (vehicle, compound or combination) was orally administrated to the mice according to the predetermined doses for 14-days or 21-days. Animal body weight and tumor volume were measured every 2-or 3-days throughout the treatment.

[4] = Toxicity and toxicokinetic studies, 28-day rat and dog; conditions: 28-day rat and dog studies
From the text: Toxicity and toxicokinetic (TK) studies of the compounds can be performed by well known methods.

[5] = IV, 2 mg/kg, mean, read-out: Vdss
[6] = female, 15 mg/kg/day, Study Day 1, Female
[7] = female, 15 mg/kg/day, Study Day 28, Female
[8] = female, 45 mg/kg/day, Study Day 1, Female
[9] = female, 45 mg/kg/day, Study Day 28, Female
[10] = female, 105 mg/kg/day, Study Day 28, Female
[11] = female, 150 mg/kg/day, Study Day 1, Female
[12] = male, 15 mg/kg/day, Study Day 1, Male
[13] = male, 15 mg/kg/day, Study Day 28, Male
[14] = male, 45 mg/kg/day, Study Day 1, Male
[15] = male, 45 mg/kg/day, Study Day 28, Male
[16] = male, 105 mg/kg/day, Study Day 28, Male
[17] = male, 150 mg/kg/day, Study Day 1, Male

C=CC(=O)N1CC[C@@H](n2nc(-c3ccc(Oc4c(F)c(F)cc(F)c4F)cc3F)c3c(N)ncnc32)C1 [Compound 45, 1-((R)-3-(4-amino-3-(2-fluoro-4-(2,3,5,6-tetrafluorophenoxy)phenyl)-1H-pyrazolo[3,4-d]pyrimidin-1-yl)pyrrolidin-1-yl)prop-2-en-1-one]
Inh % TMD-8 cell viability (TMD-8 cells; 0.01 μM): 51.66% | Inh % TMD-8 cell viability (TMD-8 cells; 0.1 μM): 52.40% | Inh % TMD-8 cell viability (TMD-8 cells; 1 uM): 55.05% | AUC(0-inf) ([1]; IV, 2 mg/kg, mean): 1740 ng·h/mL | AUC(0-t) ([1]; IV, 2 mg/kg, mean): 1740 ng·h/mL | C0 ([1]; IV, 2 mg/kg, mean): 1390 ng/mL | clearance ([1]; IV, 2 mg/kg, mean): 20.2 mL/min/kg | half-life ([1]; IV, 2 mg/kg, mean): 0.787 h | Vd [1, 5]: 1.61 L/kg | bioavailability ([1]; PO, 10 mg/kg): 37.1% | AUC(0-inf) ([1]; PO, 10 mg/kg, mean): 3260 ng·h/mL | AUC(0-t) ([1]; PO, 10 mg/kg, mean): 3230 ng·h/mL | Cmax ([1]; PO, 10 mg/kg, mean): 641 ng/mL | Tmax ([1]; PO, 10 mg/kg, mean): 1.33 h | half-life ([1]; PO, 10 mg/kg, mean): 1.71 h | AUC(0-inf) ([2]; IV, 2 mg/kg, mean): 987 ng·h/mL | AUC(0-t) ([2]; IV, 2 mg/kg, mean): 977 ng·h/mL | C0 ([2]; IV, 2 mg/kg, mean): 663 ng/mL | clearance ([2]; IV, 2 mg/kg, mean): 34.6 mL/min/kg | half-life ([2]; IV, 2 mg/kg, mean): 2.27 h | Vd [2, 5]: 4.24 L/kg | bioavailability ([2]; PO, 5 mg/kg): 26.2% | AUC(0-inf) ([2]; PO, 5 mg/kg, mean): 574 ng·h/mL | AUC(0-t) ([2]; PO, 5 mg/kg, mean): 650 ng·h/mL | Cmax ([2]; PO, 5 mg/kg, mean): 189 ng/mL | Tmax ([2]; PO, 5 mg/kg, mean): 1.17 h | half-life ([2]; PO, 5 mg/kg, mean): 2.92 h | AUC compared with ibrutinib ([3]; TK data): significantly higher than that of ibrutinib | Cmax [3, 6]: 685 ± 212 ng/mL | Tmax [3, 6]: 1 h | AUC(0-t) [3, 6]: 2930 ng·h/mL | Cmax [3, 7]: 687 ± 123 ng/mL | Tmax [3, 7]: 2 h | AUC(0-t) [3, 7]: 3730 ± 549 ng·h/mL | Cmax [3, 8]: 1220 ± 431 ng/mL | Tmax [3, 8]: 2 h | AUC(0-t) [3, 8]: 6220 ± 3000 ng·h/mL | Cmax [3, 9]: 1060 ± 263 ng/mL | Tmax [3, 9]: 2 h | AUC(0-t) [3, 9]: 8130 ± 1490 ng·h/mL | Cmax [3, 10]: 2420 ± 670 ng/mL | Tmax [3, 10]: 2 h | AUC(0-t) [3, 10]: 17300 ± 2830 ng·h/mL | Cmax [3, 11]: 1850 ± 605 ng/mL | Tmax [3, 11]: 2 h | AUC(0-t) [3, 11]: 11200 ± 5990 ng·h/mL | Cmax [3, 12]: 746 ng/mL | Tmax [3, 12]: 2 h | AUC(0-t) [3, 12]: 3550 ng·h/mL | Cmax [3, 13]: 576 ± 145 ng/mL | Tmax [3, 13]: 2 h | AUC(0-t) [3, 13]: 3260 ± 732 ng·h/mL | Cmax [3, 14]: 1240 ± 381 ng/mL | Tmax [3, 14]: 2 h | AUC(0-t) [3, 14]: 6480 ± 1670 ng·h/mL | Cmax [3, 15]: 1470 ± 538 ng/mL | Tmax [3, 15]: 2 h | AUC(0-t) [3, 15]: 9170 ± 3810 ng·h/mL | Cmax [3, 16]: 2700 ± 769 ng/mL | Tmax [3, 16]: 2 h | AUC(0-t) [3, 16]: 16400 ± 5410 ng·h/mL | Cmax [3, 17]: 2460 ± 858 ng/mL | Tmax [3, 17]: 4 h | AUC(0-t) [3, 17]: 22900 ± 13900 ng·h/mL | Antitumor effect (TMD-8 lymphoma xenograft; 5 mg/kg, 21 days (FIG. 2)): 33% | Antitumor effect (TMD-8 lymphoma xenograft; 10 mg/kg, 14 days (FIG. 1)): 64% | Antitumor effect (TMD-8 lymphoma xenograft; 30 mg/kg, 14 days (FIG. 1)): 82% | Antitumor effect (TMD-8 lymphoma xenograft; 90 mg/kg, 14 days (FIG. 1)): 93% | TMD-8 tumor growth suppression (TMD-8 lymphoma xenograft; multiple doses, p.o., 14 days (FIG. 1)): significant TMD-8 tumor growth suppressions were dose-depended | drug exposure, Day 1 versus Day 28 [4]: no significant difference in drug exposure between Day 1 and Day 28 | drug exposure, male versus female [4]: no significant difference in drug exposure between male and female
